PubChem BioAssay AID2060901 (Molecular Pharmacology Branch, DTP, NCI, 2025)
pIC50: −log10 of the molar value.

Tested on: 422866-222-R5-J1-PDC complex spheroids viability
Assay: Anticancer human tumor 422866-222-R5-J1-PDC patient-derived pancreatic adenocarcinoma cell line growth inhibition [RAS]
Settings: for pIC50: curve of first compound; for viability, T/C: stronger effect = lower value
Method in brief: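 Tumour cells grown as complex spheroids with HUVEC endothelial cells and mesenchymal stem cells, treated with RAS pathway inhibitor combinations. Each agent spans half-log steps from near clinical Cmax, or 10 microM where Cmax is unknown.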

[1] = second compound 0.000949 µM, first compound 0.0316 µM
[2] = second compound 0.000949 µM, first compound 0.1 µM
[3] = second compound 0.000949 µM, first compound 0.316 µM
[4] = second compound 0.000949 µM, first compound 1 µM
[5] = second compound 0.003 µM, first compound 0.0316 µM
[6] = second compound 0.003 µM, first compound 0.1 µM
[7] = second compound 0.003 µM, first compound 0.316 µM
[8] = second compound 0.003 µM, first compound 1 µM
[9] = second compound 0.00949 µM, first compound 0.0316 µM
[10] = second compound 0.00949 µM, first compound 0.1 µM
[11] = second compound 0.00949 µM, first compound 0.316 µM
[12] = second compound 0.00949 µM, first compound 1 µM
[13] = second compound 0.03 µM, first compound 0.0316 µM
[14] = second compound 0.03 µM, first compound 0.1 µM
[15] = second compound 0.03 µM, first compound 0.316 µM
[16] = second compound 0.03 µM, first compound 1 µM
[17] = second compound 0.0949 µM, first compound 0.0316 µM
[18] = second compound 0.0949 µM, first compound 0.1 µM
[19] = second compound 0.0949 µM, first compound 0.316 µM
[20] = second compound 0.0949 µM, first compound 1 µM
[21] = second compound 0.3 µM, first compound 0.0316 µM
[22] = second compound 0.3 µM, first compound 0.1 µM
[23] = second compound 0.3 µM, first compound 0.316 µM
[24] = second compound 0.3 µM, first compound 1 µM
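Note: spheroids exposed to compounds for 7 days.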
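Throughout, for viability, T/C: 100% = DMSO vehicle control viability.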

## CCC(CC)c1cc(NC2CCC(N)C2)n2nccc2n1 (centres undefined) + CCn1c(-c2cccnc2C(C)OC)c2c3cc(ccc31)N1CCOC(CC(NC(=O)C(C(C)C)N(C)C(=O)C3(F)CCN(C(=O)C#CC(C)(C)N(C)C)CC3)C(=O)N3CCCC(N3)C(=O)OCC(C)(C)C2)C1
Second compound 0.000949 µM
  pIC50: > 7.50
Second compound 0.003 µM
  pIC50: > 7.50
Second compound 0.00949 µM
  pIC50: > 7.50
Second compound 0.03 µM
  pIC50: > 7.50
Second compound 0.0949 µM
  pIC50: > 7.50
Second compound 0.3 µM
  pIC50: > 7.50
[1]
  viability, T/C: 28.4%
[2]
  viability, T/C: 27.2%
[3]
  viability, T/C: 29.5%
[4]
  viability, T/C: 32.3%
Second compound 0.000949 µM, first compound 3.16 µM
  viability, T/C: 13.3%
Second compound 0.000949 µM, first compound 10 µM
  viability, T/C: 46.4%
[5]
  viability, T/C: 27.7%
[6]
  viability, T/C: 22.5%
[7]
  viability, T/C: 28.1%
[8]
  viability, T/C: 28.2%
Second compound 0.003 µM, first compound 3.16 µM
  viability, T/C: 12.1%
Second compound 0.003 µM, first compound 10 µM
  viability, T/C: 44.5%
[9]
  viability, T/C: 23.8%
[10]
  viability, T/C: 24.4%
[11]
  viability, T/C: 23.8%
[12]
  viability, T/C: 29.6%
Second compound 0.00949 µM, first compound 3.16 µM
  viability, T/C: 14.5%
Second compound 0.00949 µM, first compound 10 µM
  viability, T/C: 43.7%
[13]
  viability, T/C: 21.2%
[14]
  viability, T/C: 22.1%
[15]
  viability, T/C: 22.8%
[16]
  viability, T/C: 25.4%
Second compound 0.03 µM, first compound 3.16 µM
  viability, T/C: 12%
Second compound 0.03 µM, first compound 10 µM
  viability, T/C: 42%
[17]
  viability, T/C: 20.7%
[18]
  viability, T/C: 15.8%
[19]
  viability, T/C: 22.4%
[20]
  viability, T/C: 24.5%
Second compound 0.0949 µM, first compound 3.16 µM
  viability, T/C: 11.7%
Second compound 0.0949 µM, first compound 10 µM
  viability, T/C: 45.5%
[21]
  viability, T/C: 15.6%
[22]
  viability, T/C: 20.1%
[23]
  viability, T/C: 20.7%
[24]
  viability, T/C: 24.1%
Second compound 0.3 µM, first compound 3.16 µM
  viability, T/C: 12.5%
Second compound 0.3 µM, first compound 10 µM
  viability, T/C: 48.7%

## C=CC(=O)N1CCN(c2nc(OCC3CCCN3C)nc3c(F)c(-c4nc(N)cc(C)c4C(F)(F)F)c(Cl)cc23)C(C)C1 (centres undefined) + CCn1c(-c2cccnc2C(C)OC)c2c3cc(ccc31)N1CCOC(CC(NC(=O)C(C(C)C)N(C)C(=O)C3(F)CCN(C(=O)C#CC(C)(C)N(C)C)CC3)C(=O)N3CCCC(N3)C(=O)OCC(C)(C)C2)C1
Second compound 0.000949 µM
  pIC50: > 8.50
Second compound 0.003 µM
  pIC50: > 8.50
Second compound 0.00949 µM
  pIC50: > 8.50
Second compound 0.03 µM
  pIC50: > 8.50
Second compound 0.0949 µM
  pIC50: > 8.50
Second compound 0.3 µM
  pIC50: > 8.50
Second compound 0.000949 µM, first compound 0.00316 µM
  viability, T/C: 24.9%
Second compound 0.000949 µM, first compound 0.01 µM
  viability, T/C: 25.5%
[1]
  viability, T/C: 23.4%
[2]
  viability, T/C: 23.8%
[3]
  viability, T/C: 21.1%
[4]
  viability, T/C: 22.7%
Second compound 0.003 µM, first compound 0.00316 µM
  viability, T/C: 24.1%
Second compound 0.003 µM, first compound 0.01 µM
  viability, T/C: 25.6%
[5]
  viability, T/C: 21.5%
[6]
  viability, T/C: 22.8%
[7]
  viability, T/C: 21.1%
[8]
  viability, T/C: 24%
Second compound 0.00949 µM, first compound 0.00316 µM
  viability, T/C: 22.8%
Second compound 0.00949 µM, first compound 0.01 µM
  viability, T/C: 24.2%
[9]
  viability, T/C: 23.3%
[10]
  viability, T/C: 20.6%
[11]
  viability, T/C: 21.6%
[12]
  viability, T/C: 22.1%
Second compound 0.03 µM, first compound 0.00316 µM
  viability, T/C: 21.2%
Second compound 0.03 µM, first compound 0.01 µM
  viability, T/C: 23.9%
[13]
  viability, T/C: 17.8%
[14]
  viability, T/C: 18.9%
[15]
  viability, T/C: 21.1%
[16]
  viability, T/C: 22.4%
Second compound 0.0949 µM, first compound 0.00316 µM
  viability, T/C: 21.4%
Second compound 0.0949 µM, first compound 0.01 µM
  viability, T/C: 19.8%
[17]
  viability, T/C: 20.1%
[18]
  viability, T/C: 20.2%
[19]
  viability, T/C: 19.7%
[20]
  viability, T/C: 21.3%
Second compound 0.3 µM, first compound 0.00316 µM
  viability, T/C: 18%
Second compound 0.3 µM, first compound 0.01 µM
  viability, T/C: 18%
[21]
  viability, T/C: 20.5%
[22]
  viability, T/C: 19.6%
[23]
  viability, T/C: 16.5%
[24]
  viability, T/C: 20%
